Results: patent US20160120979A1, “METHOD OF APPLYING A COMPOSITION AND PHARMACEUTICAL COMPOSITION WITH A REGIMEN OF ADMINISTERING IT” (priority 2013, published 2016)
Values after ≈ are worked out from the molar mass of the structure shown. Read-outs that look alike come from different tables or passages of the source.

Experiments:
[1] = tested on: MU50 multi-drug resistant bacterial cells; test: Experiment 2: moxifloxacin with UV-A on MU50 (CFU); assay type: cell-based, Staphylococcus aureus; settings: for control: CFU without UVA: no UVA
Text: This low concentration was chosen so as to detect threshold effects at the low edge of a just marginally effective concentration level of the antibiotic.

[2] = tested on: fibroblasts; assay type: cell-based
Experimental: In the second toxicity test fibroblasts were grown in RPMI cell culture medium medium with 10% fetal bovine serum and 1% of penicillin-streptomycin-fungizione (100×).
A: pulsed for 10 ms on and 90 ms of for 10 minutes or
B: pulsed for 5 ms on and 45 ms of for 10 minutes
C: no exposure to electromagnetic radiation
The result was obtained by counting viable cells for determination of the percentage of viable cells, with 100% viability being equal to the number of cells delivered to each well.

[3] = tested on: Staphylococcus aureus MU500; assay type: cell-based; settings: remaining bacteria of experiment 12 proliferated and treated again
Experimental: (§1) 15′000′000 multi-resistant bacteriae (0.050 ml of a McFarland of 1) were put on 40 mm diameter petri dishes. The petri dishes comprised MH agar with or without antibiotic.
(§2) The LED power during 0.02 ms was measured to be 0.63 W on a Thorlabs power sensor with a surface area of 2.2×2.2 mm representing a power of 13 mW/cm^2.
(§3) After the irradiation treatment according to experiment 12, remaining bacteria were allowed to proliferate and then were subject to the treatment according to experiment 12 again in order to test for possible new resistances to the treatment. The values in the following table are designated as in experiment 12: […]

[4] = tested on: Acinetobacter; assay type: cell-based; settings: remaining bacteria of experiment 12 proliferated and treated again
Experimental: as §1, §2, §3

[5] = tested on: Staphylococcus aureus MU500; test: Experiment 12: replication on antibiotic agar after pulsed 400 nm irradiation; assay type: cell-based; settings: 24 hours incubation; for E: Staphylococcus aureus MU500 (no irradiation), replication: antibiotic 10 mg/l in MH agar; for F: Staphylococcus aureus MU500 (irradiation), replication: antibiotic 10 mg/l, 400 nm LED pulses 0.02 ms, 1 kHz, 10 minutes
Experimental: as §1, §2

[6] = tested on: Pseudomonas aeruginosa; test: as above; assay type: cell-based; settings: 24 hours incubation; for A: Pseudomonas aeruginosa (no irradiation), replication: antibiotic 10 mg/l in MH agar; for B: Pseudomonas aeruginosa (irradiation), replication: antibiotic 10 mg/l, 400 nm LED pulses 0.02 ms, 1 kHz, 10 minutes
Experimental: as §1
(§4) […]. The LED power during 0.02 ms was measured to be 0.63 W on a Thorlabs power sensor with a surface area of 2.2×2.2 mm representing a power of 13 mW/cm^2.

[7] = tested on: Acinetobacter; test: as above; assay type: cell-based; settings: 24 hours incubation; for C: Acinetobacter (no irradiation), replication: antibiotic 10 mg/l in MH agar; for D Acinetobacter (irradiation), replication: antibiotic 10 mg/l, 400 nm LED pulses 0.02 ms, 1 kHz, 10 minutes
Experimental: as §1, §4

[8] = tested on: Mice fibroblast; assay type: cell-based; settings: Tobramycin 75, Tetracycline 10, Ciprofloxacin 1 μg/ml; 30 min pre-incubation; no treatment, CXL 18 mW/cm2 5 min or laser 405 nm 1 min; 24 hours
Experimental: The number of colony forming units (CFU) was determined after 24 hours of incubation at 37° C.

[9] = tested on: MU50 multidrug-resistant Staphylococcus aureus strain (MRSA); test: Minimum inhibitory concentration (MIC) on MU50; assay type: cell-based; settings: Staphylococcus aureus, MRSA; overnight incubation; read-out: MIC
Text: For some of the experimental tests MU50 bacteria were used. MU50 is a multidrug-resistant Staphylococcus aureus strain (MRSA). MRSA are bacteria which have naturally evolved under antibiotic selection pressure and which are known to be resistant to antibiotics including penicillins (methicillin, dicloxacillin, nafcillin, oxacillin, etc.) and cephalosporins. MU50 is additionally resistant to macrolides, quinolones and aminoglycosides.
The minimum inhibitory concentration (MIC), which inhibits the visible growth of a microorganism after an overnight incubation was determined for the following antibiotics: […]

[10] = sample 1A: moxifloxacin during UV 5 μg/ml, after UV 7.5 μg/ml for 2 hours, UV-A 365 nm 10 mW/cm^2 10 min
[11] = sample 1B: moxifloxacin during UV 5 μg/ml, after UV 2.5 μg/ml (NaCl added), UV-A 365 nm 10 mW/cm^2 10 min

SMILES | F: Staphylococcus aureus MU500 (irradiation), replication, second treatment [3] | E: Staphylococcus aureus MU500 (no irradiation), replication, second treatment [3] | D Acinetobacter (irradiation), replication, second treatment [4] | C: Acinetobacter (no irradiation), replication, second treatment [4] | E: Staphylococcus aureus MU500 (no irradiation), replication [5] | F: Staphylococcus aureus MU500 (irradiation), replication [5] | A: Pseudomonas aeruginosa (no irradiation), replication [6] | B: Pseudomonas aeruginosa (irradiation), replication [6] | C: Acinetobacter (no irradiation), replication [7] | D Acinetobacter (irradiation), replication [7] | further results
COc1c(N2C[C@@H]3CCCN[C@@H]3C2)c(F)cc2c(=O)c(C(=O)O)cn(C3CC3)c12 [Moxifloxacin] | PR (Bacteria can replicate partially) | R (Bacteria can replicate after the treatment) | NR (No replication) | R (Bacteria can replicate after the treatment) | R (Bacteria can replicate after the treatment) | NR (No replication) | R (Bacteria can replicate after the treatment) | NR (No replication) | R (Bacteria can replicate after the treatment) | NR (No replication) | control: CFU without UVA ([1]; sample 1A: moxifloxacin during 5 μg/ml, after 7.5 μg/ml for 2 hours): 516 CFU; CFU with UVA [1, 10]: 3 CFU; CFU with UVA, percentage in brackets (survival rate) [1, 10]: 0%; control: CFU without UVA ([1]; sample 1B: moxifloxacin during 5 μg/ml, after 2.5 μg/ml (NaCl added)): 400 CFU; CFU with UVA [1, 11]: 119 CFU; CFU with UVA, percentage in brackets [1, 11]: 30%; Percentage of viable cells ([2]; C: no exposure to electromagnetic radiation, antibiotic 3-10 μg/ml final): 85%
CN(C)[C@@H]1C(O)=C(C(N)=O)C(=O)[C@@]2(O)C(O)=C3C(=O)c4c(O)cccc4[C@@](C)(O)C3CC12 (stereo partly shown) [Tetracycline] | NR (No replication) | R (Bacteria can replicate after the treatment) | NR (No replication) | R (Bacteria can replicate after the treatment) | R (Bacteria can replicate after the treatment) | NR (No replication) | R (Bacteria can replicate after the treatment) | NR (No replication) | R (Bacteria can replicate after the treatment) | NR (No replication) | toxicity in term of necrosis and apoptosis [8]: No toxicity in term of necrosis and apoptosis; Percentage of viable cells Normalized for the dead cell in NaCl group including light ([2]; A: 405 nm pulsed 10 ms on, 90 ms off for 10 minutes): 52%; Percentage of viable cells Normalized for the dead cell in NaCl group including light ([2]; B: 405 nm pulsed 5 ms on, 45 ms off for 10 minutes): 57%; MIC [9]: 32 µg/mL (≈ 72 µM)
